Results reported in patent publication US11312692B1, “Polymorphic compounds and uses thereof” (Aldeyra Therapeutics, Inc., priority 2018, dated 2022).

What was measured:
Format in all cases: physicochemical
[1] = Aqueous solubility at pH 1, 4.5 and 6.8 (HPLC concentration, XRPD of solids); settings: for solubility: thermodynamic from solid, shaken at ambient temperature
Procedure: Approximately 20 mg of each of Compounds 1 and 5-8 was weighed into three 2 mL vials. The appropriate pH buffer was added to achieve pH values of pH 1, 4.5 and 6.8. The pH was measured after buffer addition and the pH adjusted if required back to the appropriate pH. […]

[2] = Dynamic Vapour Sorption (DVS) with post-DVS XRPD; settings: for solid form post-DVS by XRPD: after DVS cycles
Procedure: Dynamic Vapour Sorption (DVS): approximately, 10 mg of sample was placed into a mesh vapour sorption balance pan and loaded into a DVS-1 dynamic vapour sorption balance, a DVS Intrinsic dynamic vapour sorption balance or a DVS Advantage dynamic vapour sorption balance by Surface Measurement Systems. The sample was subjected to a ramping profile from 40-90% relative humidity (RH) at 10% increments, maintaining the sample at each step until a stable weight had been achieved (dm/dt 0.004%, minimum step length 30 minutes, maximum step length 500 minutes) at 25° C. After completion of the sorption cycle, the sample was dried using the same procedure to 0% RH and then a second sorption cycle back to 40% RH. Two cycles were performed. The weight change during the sorption/desorption cycles were plotted, allowing for the hygroscopic nature of the sample to be determined. XRPD analysis was then carried out on any solid retained.

[3] = 1 week stability (40° C./75% RH, 80° C., ambient), XRPD and HPLC purity
Procedure: Scale up of both Forms B and C was carried out on the 200 mg scale. Form B was produced from acetone through evaporation. Characterisation of the solid, indicated the material had long lath-like crystals, with the remaining parameters consistent with the previously produced Form B material. Further analysis of the solid by NMR and mass spectrometry identified the material as an imine.
(§1) Form C material was produced through crash cooling to −18° C. in acetonitrile, the material produced through this scale-up was identified as being similar to the previous Form C material.

[4] = Conversion of solid form on grinding (XRPD)
Procedure: as §1

SMILES: CC(C)(O)c1cc2oc(-c3ccccc3)nc2cc1N [Compound 1 Form A]
- solubility ([1]; aqueous buffer, pH 4.5 buffer): ≥ 500 mg/mL
- solubility ([1]; aqueous buffer, pH 6.8 buffer): ≥ 500 mg/mL
- solubility ([1]; simulated gastric fluid, pH 1 buffer): ≥ 500 mg/mL

SMILES: CC(C)(O)c1cc2oc(-c3ccccc3)nc2cc1N [Compound A, Form A]
- hygroscopic nature (DVS) ([2]; DVS, 25° C.): slightly hygroscopic
- uptake at 90% RH (DVS) ([2]; DVS, 25° C., 90% RH): 0.6%
- solid form post-DVS by XRPD [2]: consistent with the input material

SMILES: CC(C)(O)c1cc2oc(-c3ccccc3)nc2cc1N [Compound A, Form C]
- drop in purity over the stability period ([3]; 1 week, 40° C./75% RH, versus input Form C purity): 0.1%
- change in purity over the stability period ([3]; 1 week, 80° C.): no change
- change in purity over the stability period ([3]; 1 week, ambient conditions): no change
- solid form after 1 week stability by XRPD ([3]; all three conditions (40° C./75% RH, 80° C., ambient)): converted to Form A
- hygroscopic nature (DVS) ([2]; DVS, 25° C.): slightly hygroscopic
- solid form post-DVS by XRPD [2]: Form A
- solid form when ground [4]: mixture of Forms A and C

SMILES: CC(C)(O)c1cc2oc(-c3ccccc3)nc2cc1N.CS(=O)(=O)O [Form A of Compound 1]
- aqueous solubility compared with other salt forms ([1]; versus Form C of Compound 5, Form A of Compound 6, Form B of Compound 7, Form B of Compound 8, pH 1, 4.5, 6.8 buffers, ca. 20 hours, ambient): far more soluble
